The structures appear in SMILES notation.

Our source for the IC50 values is patent US20240199546A1, “INHIBITORS OF SOLUTE CARRIER FAMILY 6A MEMBER 19 (SLC6A19) AND METHODS OF USE THEREOF” (Maze Therapeutics, Inc., priority 2022, published 2024).

The assay addresses T1, human SLC6A19 and TMEM27 (Homo sapiens, UniProt Q695T7).
T1 construct: expressed in transfected cells
T1 sequence (Q695T7 1-634): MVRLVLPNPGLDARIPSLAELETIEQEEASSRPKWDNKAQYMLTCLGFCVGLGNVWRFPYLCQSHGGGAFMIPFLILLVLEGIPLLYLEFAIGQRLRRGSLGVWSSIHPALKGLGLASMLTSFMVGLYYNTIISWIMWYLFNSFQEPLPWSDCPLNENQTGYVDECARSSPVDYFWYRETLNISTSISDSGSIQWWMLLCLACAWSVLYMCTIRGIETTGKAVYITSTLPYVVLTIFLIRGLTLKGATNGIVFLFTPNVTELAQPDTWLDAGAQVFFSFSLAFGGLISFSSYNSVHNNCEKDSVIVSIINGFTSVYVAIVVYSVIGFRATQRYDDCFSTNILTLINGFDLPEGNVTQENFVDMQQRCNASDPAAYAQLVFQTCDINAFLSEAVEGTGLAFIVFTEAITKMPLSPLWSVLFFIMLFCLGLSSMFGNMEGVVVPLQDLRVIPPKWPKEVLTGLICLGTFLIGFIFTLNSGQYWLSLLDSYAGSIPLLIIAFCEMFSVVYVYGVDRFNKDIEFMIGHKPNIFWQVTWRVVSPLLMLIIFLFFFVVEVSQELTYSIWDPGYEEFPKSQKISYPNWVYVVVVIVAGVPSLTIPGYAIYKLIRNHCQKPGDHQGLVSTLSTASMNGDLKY
T1 sequence (Q9HBJ8 15-222 partner): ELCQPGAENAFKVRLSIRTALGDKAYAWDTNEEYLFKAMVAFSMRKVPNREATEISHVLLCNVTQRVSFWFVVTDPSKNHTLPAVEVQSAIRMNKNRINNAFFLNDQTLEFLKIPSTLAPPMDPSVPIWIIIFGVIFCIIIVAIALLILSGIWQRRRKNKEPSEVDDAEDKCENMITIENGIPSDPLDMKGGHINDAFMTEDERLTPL
Description: Radiolabelled (3H) leucine uptake in CHO cells with doxycycline-inducible expression of human SLC6A19 and TMEM27 (Example B-1). The following applies: CHO cells with doxycycline-inducible expression of human SLC6A19 and TMEM27, read-out: SLC6A19_Radioligand Uptake Assay IC50. Type of assay: cell-based. As to the method: The flasks were then incubated (humidified, 37° C. with 5% CO2) for 2 minutes. After incubation, 10 mL of pre-warmed cell culture media was added to each flask. The cell suspension was collected and centrifuged for 5 minutes at 200×g. The supernatant was aspirated and the pellet was resuspended in 5 mL pre-warmed cell culture media. The resuspended cells were counted using the Countess Cell Counting Chamber (Invitrogen) and the cell concentration of the suspension was readjusted to 1 million live cells/mL using pre-warmed cell culture media. […] Assay plates were then incubated (humidified, 37° C. with 5% CO2) for 18 hours. After incubation, the media was aspirated and the wells were washed 4 times with pre-warmed HBSS (Sigma-Aldrich, H8264-1L) using an Apricot S-Pipette S2 (Apricot Designs), such that 5 uL/well HBSS was remaining at the end of each wash. […] At this step, the final in-well DMSO concentration in the assay plate is 0.5%. All compounds were plated in a duplicate 8-point dilution series that consisted of 3-fold dilutions. The plates were incubated with compound (humidified, 37° C. with 5% CO2) for 1 hour. […] The plates were then incubated (humidified, 37° C. with 5% CO2) on a plate shaker at 200 rpm for 2 hours. After incubation, the plates were removed from the shaker and kept at room temperature for 15 minutes. Liquid scintillation analysis was performed using the MicroBeta2 Microplate Counter (Perkin Elmer). Activity (%) was derived by normalizing the average of positive control compound treated wells to 0% and the average of DMSO (negative control) wells to 100%. Collaborative Drug Discovery software was used for graphing data.
The term IC50 denotes the concentration needed to halve the response being measured. As to `Cc1cc(COc2cc3[nH]c(CNC(=O)C4COC4)cc3cc2Cl)on1` [Compound 274, N-((5-chloro-6-((3-methylisoxazol-5-yl)methoxy)-1H-indol-2-yl)methyl)oxetane-3-carboxamide], the concentration for half-maximal inhibition (IC50) was 175 nM.
On to `Cc1ccc(COc2cc3[nH]c(CNC(=O)C4(C)CC4)cc3cc2Cl)nc1` [Compound 21, N-((5-chloro-6-((5-methylpyridin-2-yl)methoxy)-1H-indol-2-yl)methyl)-1-methylcyclopropane-1-carboxamide], for which the 50% inhibitory concentration (IC50) turned out to be 532 nM.
In the case of `CC1(C(=O)NCc2cc3cc(Cl)c(OCC4COC4)cc3[nH]2)CC1` [Compound 336, N-((5-chloro-6-(oxetan-3-ylmethoxy)-1H-indol-2-yl)methyl)-1-methylcyclopropane-1-carboxamide], the half-maximal inhibitory concentration (IC50) was 1190 nM.
On to `Cc1cc(COc2cc3[nH]c(CNC(=O)N4CCC(F)C4)cc3cc2Cl)on1` (racemic) [Compound 373, (R)-N-((5-chloro-6-((3-methylisoxazol-5-yl)methoxy)-1H-indol-2-yl)methyl)-3-fluoropyrrolidine-1-carboxamide and (S)-N-((5-chloro-6-((3-methylisoxazol-5-yl)methoxy)-1H-indol-2-yl)methyl)-3-fluoropyrrolidine-1-carboxamide], for which the concentration for half-maximal inhibition (IC50) turned out to be 472 nM.
For `CC1(C(=O)NCc2cc3cc(Cl)c(OCC4CC4)cc3[nH]2)CC1` [Compound 633, N-((5-chloro-6-(cyclopropylmethoxy)-1H-indol-2-yl)methyl)-1-methylcyclopropane-1-carboxamide], the IC50 amounted to 181 nM.
As to `CC(=O)NCc1cc2cc(Cl)c(OCC3COCCO3)cc2[nH]1` (stereo not drawn) [Compound 457, N-((6-((1,4-dioxan-2-yl)methoxy)-5-chloro-1H-indol-2-yl)methyl)acetamide], the half-maximal inhibitory concentration (IC50) stood at 3640 nM.
Turning to `CC1(C(=O)NCc2cc3cc(-c4ccon4)c(OCc4cscn4)cc3[nH]2)CC1` [Compound 659, N-((5-(isoxazol-3-yl)-6-(thiazol-4-ylmethoxy)-1H-indol-2-yl)methyl)-1-methylcyclopropane-1-carboxamide], the IC50 amounted to 1970 nM.
For `O=C(NCc1cc2cc(Cl)c(OCc3cscn3)cc2[nH]1)N1CCC(O)C1` (racemic) [Compound 366, (R)-N-((5-chloro-6-(thiazol-4-ylmethoxy)-1H-indol-2-yl)methyl)-3-hydroxypyrrolidine-1-carboxamide and (S)-N-((5-chloro-6-(thiazol-4-ylmethoxy)-1H-indol-2-yl)methyl)-3-hydroxypyrrolidine-1-carboxamide] the value was 1530 nM; for `CC1(C(=O)NCc2cc3cc(Cl)c(OCc4ncon4)cc3[nH]2)CC1` [Compound 319, N-((6-((1,2,4-oxadiazol-3-yl)methoxy)-5-chloro-1H-indol-2-yl)methyl)-1-methylcyclopropane-1-carboxamide], 273 nM; for `CC1(C(=O)NCc2cc3cc(-c4ccno4)c(OCc4cscn4)cc3[nH]2)CC1` [Compound 660, N-((5-(isoxazol-5-yl)-6-(thiazol-4-ylmethoxy)-1H-indol-2-yl)methyl)-1-methylcyclopropane-1-carboxamide], 1580 nM.
The figure for `Cc1cc(COc2cc3[nH]c(CNC(=O)NC(C)C)cc3cc2Cl)on1` [Compound 638, 1-((5-chloro-6-((3-methylisoxazol-5-yl)methoxy)-1H-indol-2-yl)methyl)-3-isopropylurea] is 264 nM; for `CC(=O)NCc1cc2cc(Cl)c(OC[C@@H]3CCCO3)cc2[nH]1` [Compound 466, (S)-N-((5-chloro-6-((tetrahydrofuran-2-yl)methoxy)-1H-indol-2-yl)methyl)acetamide] it is 2960 nM.
With `COCC(=O)NCc1cc2cc(Cl)c(OCc3cscn3)cc2[nH]1` [Compound 270, N-((5-chloro-6-(thiazol-4-ylmethoxy)-1H-indol-2-yl)methyl)-2-methoxyacetamide], the IC50 worked out at 110 nM.
Consider `CC(F)C(=O)NCc1cc2cc(Cl)c(OCc3cscn3)cc2[nH]1` (racemic) [Compound 511, (R)-N-((5-chloro-6-(thiazol-4-ylmethoxy)-1H-indol-2-yl)methyl)-2-fluoropropanamide and (S)-N-((5-chloro-6-(thiazol-4-ylmethoxy)-1H-indol-2-yl)methyl)-2-fluoropropanamide], for which the IC50 came to 86.1 nM.
For `CCC(=O)NCc1cc2c(F)cc(OCc3cscn3)cc2[nH]1` [Compound 515, N-((4-fluoro-6-(thiazol-4-ylmethoxy)-1H-indol-2-yl)methyl)propionamide] the value was 116 nM.
`O=C(NCc1cc2cc(Cl)c(CCc3cscn3)cc2[nH]1)N1CCC1` [Compound 599, N-((5-chloro-6-(2-(thiazol-4-yl)ethyl)-1H-indol-2-yl)methyl)azetidine-1-carboxamide]: the concentration for half-maximal inhibition (IC50) turned out to be 163 nM.
The figure for `O=C(NCc1cc2cc(F)c(OCc3cocn3)cc2[nH]1)C1CC1` [Compound 428, N-((5-fluoro-6-(oxazol-4-ylmethoxy)-1H-indol-2-yl)methyl)cyclopropanecarboxamide] is 161 nM.
Regarding `Cc1cnc(COc2cc3[nH]c(CNC(=O)C4(C)CC4)cc3cc2F)o1` [Compound 73, N-((5-fluoro-6-((5-methyloxazol-2-yl)methoxy)-1H-indol-2-yl)methyl)-1-methylcyclopropane-1-carboxamide], the IC50 came to 1470 nM.
In the case of `Cc1cc(COc2cc3[nH]c(CNC(=O)[C@@H]4CCCO4)cc3cc2Cl)on1` [Compound 312, (S)-N-((5-chloro-6-((3-methylisoxazol-5-yl)methoxy)-1H-indol-2-yl)methyl)tetrahydrofuran-2-carboxamide], the IC50 is 317 nM.
With `O=C(NCc1cc2cc(Cl)c(OCc3cscn3)cc2[nH]1)[C@H]1CCCO1` [Compound 266, (R)-N-((5-chloro-6-(thiazol-4-ylmethoxy)-1H-indol-2-yl)methyl)tetrahydrofuran-2-carboxamide], the 50% inhibitory concentration (IC50) was 142 nM.
Regarding `CC(=O)C(=O)NCc1cc2cc(Cl)c(OCc3cc(C)no3)cc2[nH]1` [Compound 582, N-((5-chloro-6-((3-methylisoxazol-5-yl)methoxy)-1H-indol-2-yl)methyl)-2-oxopropanamide], the IC50 came to 455 nM.
Regarding `Cc1cc(COc2cc3[nH]c(CNC(=O)[C@@H]4C[C@@H]4F)cc3cc2Cl)on1` [Compound 540, (1S,2S)-N-((5-chloro-6-((3-methylisoxazol-5-yl)methoxy)-1H-indol-2-yl)methyl)-2-fluorocyclopropane-1-carboxamide], the half-inhibitory concentration (IC50) is 131 nM.
As to `COc1cc2cc(CNC(=O)C3(C)CC3)[nH]c2cc1CCn1cccn1` [Compound 587, N-((6-(2-(1H-pyrazol-1-yl)ethyl)-5-methoxy-1H-indol-2-yl)methyl)-1-methylcyclopropane-1-carboxamide], the IC50 was determined as 260 nM.
As to `CCNC(=O)NCc1cc2cc(Cl)c(OCc3cc(C)no3)cc2[nH]1` [Compound 369, 1-((5-chloro-6-((3-methylisoxazol-5-yl)methoxy)-1H-indol-2-yl)methyl)-3-ethylurea], the half-maximal inhibitory concentration (IC50) is 125 nM.
As to `CC(=O)NCc1cc2cc(Cl)c(OCCOCC(F)F)cc2[nH]1` [Compound 650, N-((5-chloro-6-(2-(2,2-difluoroethoxy)ethoxy)-1H-indol-2-yl)methyl)acetamide], the half-maximal inhibitory concentration (IC50) is 1010 nM.
Take `Cc1cc(COc2cc3[nH]c(CNC(=O)C4(C)CC4)cc3cc2C(F)F)no1` [Compound 647, N-((5-(difluoromethyl)-6-((5-methylisoxazol-3-yl)methoxy)-1H-indol-2-yl)methyl)-1-methylcyclopropane-1-carboxamide]: the half-maximal inhibitory concentration (IC50) was 680 nM.
Take `Cc1cc(COc2cc3[nH]c(CNC(=O)[C@@H]4CC(F)(F)CN4C)cc3cc2Cl)on1` [Compound 668, (S)-N-((5-chloro-6-((3-methylisoxazol-5-yl)methoxy)-1H-indol-2-yl)methyl)-4,4-difluoro-1-methylpyrrolidine-2-carboxamide]: the 50% inhibitory concentration (IC50) was determined as 1150 nM.
